Data reported in US8309558B2, “Compounds for the treatment of hepatitis C” (Bristol-Myers Squibb Company, priority 2008, dated 2012).

Experiments:
HCV replicon cells = assay: HCV replicon FRET / luciferase assay (96-well plates); assay type: cell-based; settings: Hepatitis C virus, Table 1a; HCV replicon; read-out: EC50
In short: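 Percent activity is background-subtracted signal relative to untreated cell wells, with background taken from maximal protease-inhibitor wells. Cytotoxicity is Alamar blue fluorescence relative to controls. Replicon inhibition was read by NS3 FRET peptide cleavage (340/490 nm) or luciferase.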

[1] = biological target: T1, HCV NS5B RdRp genotype 1b (Hepatitis C virus genotype 1b, UniProt Q9WMX2); assay: Standard HCV NS5B RdRp enzyme assay; assay type: biochemical; settings: Table 1a; HCV NS5B RdRp genotype 1b; read-out: IC50
T1 construct: The protein was expressed with an 18 amino acid C-terminal truncation to enhance the solubility; made in house; host or cells: E. coli BL21(DE3), pET21a vector
T1 sequence (Q9WMX2 2420-2992): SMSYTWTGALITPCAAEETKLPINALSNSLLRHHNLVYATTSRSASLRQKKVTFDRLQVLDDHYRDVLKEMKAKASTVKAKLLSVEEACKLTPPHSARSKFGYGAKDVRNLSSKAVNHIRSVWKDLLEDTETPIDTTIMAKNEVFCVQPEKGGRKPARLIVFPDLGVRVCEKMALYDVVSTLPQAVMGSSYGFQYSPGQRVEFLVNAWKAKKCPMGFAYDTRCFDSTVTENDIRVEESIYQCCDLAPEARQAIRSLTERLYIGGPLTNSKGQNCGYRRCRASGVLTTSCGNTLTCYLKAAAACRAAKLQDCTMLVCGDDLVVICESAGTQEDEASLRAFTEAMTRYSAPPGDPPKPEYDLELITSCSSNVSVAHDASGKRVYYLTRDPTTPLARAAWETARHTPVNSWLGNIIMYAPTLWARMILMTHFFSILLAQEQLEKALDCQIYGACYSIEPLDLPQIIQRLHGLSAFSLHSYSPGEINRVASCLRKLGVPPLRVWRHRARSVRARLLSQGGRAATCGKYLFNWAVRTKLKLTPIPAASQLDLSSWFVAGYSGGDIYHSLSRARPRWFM
In short: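 Radiometric SPA measuring 3H-UMP incorporation on polyA/biotin-oligo-dT12 (6 nM/180 nM), 0.29 μM total UTP. Enzyme: NS5B 1b lacking last 18 residues, 28 nM final, 30° C for 60 min in 20 mM Hepes pH 7.5, 2.5 mM MgCl2, 2% DMSO. IC50 from seven-point curves.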

SMILES	EC50 (HCV replicon cells)	IC50 [1]
CNC(=O)c1c(-c2ccc(F)cc2)oc2ccc(-c3cccc(C(=O)NC4CCCC4)c3)cc12	< 0.25 µM	< 0.25 µM
CNC(=O)c1c(-c2ccc(F)cc2)oc2ccc(-c3cccc(C(=O)Nc4ccccc4OC)c3)cc12	< 0.25 µM	0.25 to 1 µM
CNC(=O)c1c(-c2ccc(F)cc2)oc2ccc(-c3cccc(C(=O)NC4CCCCCC4)c3)cc12	< 0.25 µM	< 0.25 µM
CNC(=O)c1c(-c2ccc(F)cc2)oc2ccc(-c3cccc(C(=O)NC(C)c4ccccc4)c3)cc12 (centres unmarked)	< 0.25 µM	< 0.25 µM
CNC(=O)c1c(-c2ccc(F)cc2)oc2ccc(-c3cccc(C(=O)NC4CCC(C)CC4)c3)cc12 (centres unmarked)	< 0.25 µM	< 0.25 µM
CNC(=O)c1c(-c2ccc(F)cc2)oc2ccc(-c3cccc(C(=O)NC4CCC4)c3)cc12	< 0.25 µM	< 0.25 µM
CNC(=O)c1c(-c2ccc(F)cc2)oc2ccc(-c3cccc(C(=O)Nc4cc(C)ccn4)c3)cc12	< 0.25 µM	0.25 to 1 µM
CNC(=O)c1c(-c2ccc(F)cc2)oc2ccc(-c3cccc(C(=O)Nc4ccccc4O)c3)cc12	< 0.25 µM	< 0.25 µM
CNC(=O)c1c(-c2ccc(F)cc2)oc2ccc(-c3cccc(C(=O)Nc4cccnc4)c3)cc12	< 0.25 µM	< 0.25 µM
CNC(=O)c1c(-c2ccc(F)cc2)oc2ccc(-c3cccc(C(=O)Nc4ccc(C)cn4)c3)cc12	< 0.25 µM	< 0.25 µM
CNC(=O)c1c(-c2ccc(F)cc2)oc2ccc(-c3ccc(F)cc3CN)cc12	> 10 µM	> 10 µM
CNC(=O)c1c(-c2ccc(F)cc2)oc2ccc(-c3sccc3C(=O)O)cc12	> 10 µM	> 10 µM
CNC(=O)c1c(-c2ccc(F)cc2)oc2ccc(-c3ccc(F)c(C(=O)O)c3)cc12	> 10 µM	1 to 10 µM
CNC(=O)c1c(-c2ccc(F)cc2)oc2ccc(-c3cc(C(=O)O)cc([N+](=O)[O-])c3)cc12	> 10 µM	0.25 to 1 µM
CNC(=O)c1c(-c2ccc(F)cc2)oc2ccc(-c3ccc(C(=O)O)c(Cl)c3)cc12	> 10 µM	1 to 10 µM
CNC(=O)c1c(-c2ccc(F)cc2)oc2ccc(-c3cccc(C(=O)NCC(N)=O)c3)cc12	> 10 µM	> 10 µM
CNC(=O)c1c(-c2ccc(F)cc2)oc2ccc(-c3cccc(C(=O)N4CCN(CCOC)CC4)c3)cc12	> 10 µM	> 10 µM
CNC(=O)c1c(-c2ccc(F)cc2)oc2ccc(-c3cccc(C(=O)NCCc4ccccc4)c3)cc12	> 10 µM	> 10 µM
CNC(=O)c1c(-c2ccc(F)cc2)oc2ccc(-c3ccc(C(=O)NCCC(N)=O)cc3)cc12	> 10 µM	> 10 µM
CNC(=O)c1c(-c2ccc(F)cc2)oc2ccc(-c3ccc(C(=O)N(C)CCC#N)cc3)cc12	> 10 µM	1 to 10 µM
CNC(=O)c1c(-c2ccc(F)cc2)oc2ccc(-c3ccc(C(=O)N4CCC[C@H]4CO)cc3)cc12	> 10 µM	> 10 µM
CNC(=O)c1c(-c2ccc(F)cc2)oc2ccc(-c3ccc(C(=O)NCC(N)=O)cc3)cc12	> 10 µM	> 10 µM
CNC(=O)c1c(-c2ccc(F)cc2)oc2ccc(-c3ccc(C(=O)N(C)CCO)cc3)cc12	> 10 µM	1 to 10 µM
CNC(=O)c1c(-c2ccc(F)cc2)oc2ccc(-c3ccc(C(=O)N(C)CC(=O)N(C)C)cc3)cc12	> 10 µM	> 10 µM
CNC(=O)c1c(-c2ccc(F)cc2)oc2ccc(-c3ccc(C(=O)NCCc4ccccc4Cl)cc3)cc12	> 10 µM	> 10 µM
CNC(=O)c1c(-c2ccc(F)cc2)oc2ccc(-c3ccc(C(=O)NCCNC(C)=O)cc3)cc12	> 10 µM	> 10 µM
CNC(=O)c1c(-c2ccc(F)cc2)oc2ccc(-c3ccc(C(=O)NCCc4ccc(OC)cc4)cc3)cc12	> 10 µM	> 10 µM
CNC(=O)c1c(-c2ccc(F)cc2)oc2ccc(-c3ccc(C(=O)NCCOC)cc3)cc12	> 10 µM	> 10 µM

SMILES	EC50 (HCV replicon cells)	IC50 [1]
CNC(=O)c1c(-c2ccc(F)cc2)oc2ccc(-c3cc(C(=O)O)ccc3Cl)cc12	> 10 µM	1 to 10 µM
CNC(=O)c1c(-c2ccc(F)cc2)oc2ccc(-c3ccc(Cl)c(C(=O)O)c3)cc12	> 10 µM	1 to 10 µM
CNC(=O)c1c(-c2ccc(F)cc2)oc2ccc(-c3cccc(C(=O)NC(CO)CO)c3)cc12	> 10 µM	1 to 10 µM
CNC(=O)c1c(-c2ccc(F)cc2)oc2ccc(-c3cccc(C(=O)Nc4cccc(C(=O)O)c4O)c3)cc12	> 10 µM	0.25 to 1 µM
CNC(=O)c1c(-c2ccc(F)cc2)oc2ccc(-c3cccc(C(=O)Nc4c(O)ncnc4O)c3)cc12	> 10 µM	0.25 to 1 µM
CNC(=O)c1c(-c2ccc(F)cc2)oc2ccc(-c3cccc(C(=O)N[C@@H](CO)C(N)=O)c3)cc12	> 10 µM	1 to 10 µM
CNC(=O)c1c(-c2ccc(F)cc2)oc2ccc(-c3cccc(C(=O)N(C)c4ccncc4)c3)cc12	> 10 µM	1 to 10 µM
CNC(=O)c1c(-c2ccc(F)cc2)oc2ccc(-c3cccc(C(=O)NC(C)CC(=O)O)c3)cc12 (centres unmarked)	> 10 µM	0.25 to 1 µM
CNC(=O)c1c(-c2ccc(F)cc2)oc2ccc(-c3cccc(C(=O)Nc4cccc(CC(=O)O)c4)c3)cc12	> 10 µM	< 0.25 µM
CNC(=O)c1c(-c2ccc(F)cc2)oc2ccc(-c3cccc(C(=O)Nc4n[nH]cc4C(N)=O)c3)cc12	> 10 µM	1 to 10 µM
CCOC(=O)[C@@H]1CCCN1C(=O)c1cccc(-c2ccc3oc(-c4ccc(F)cc4)c(C(=O)NC)c3c2)c1	> 10 µM	1 to 10 µM
CNC(=O)c1c(-c2ccc(F)cc2)oc2ccc(-c3cccc(C(=O)Nn4c(C)nnc4C)c3)cc12	> 10 µM	0.25 to 1 µM
CNC(=O)c1c(-c2ccc(F)cc2)oc2ccc(-c3cccc(C(=O)Nc4cncc(C(=O)O)c4)c3)cc12	> 10 µM	0.25 to 1 µM
C=CCOC(=O)[C@H](C)NC(=O)c1cccc(-c2ccc3oc(-c4ccc(F)cc4)c(C(=O)NC)c3c2)c1	> 10 µM	< 0.25 µM
CNC(=O)c1c(-c2ccc(F)cc2)oc2cc([N+](=O)[O-])c(-c3cccc(C(=O)O)c3)cc12	> 10 µM	1 to 10 µM
CNC(=O)c1c(-c2ccc(F)cc2)oc2ccc(-c3cccc(C(=O)NC4(C(=O)NS(=O)(=O)C5CC5)CC4)c3)cc12	> 10 µM	< 0.25 µM
C=C[C@@H]1C[C@]1(NC(=O)c1cccc(-c2ccc3oc(-c4ccc(F)cc4)c(C(=O)NC)c3c2)c1)C(=O)NS(=O)(=O)C1CC1	> 10 µM	0.25 to 1 µM
CNC(=O)c1c(-c2ccc(F)cc2)oc2ccc(-c3cccc(C(=O)NS(C)(=O)=O)c3)cc12	> 10 µM	0.25 to 1 µM
CNC(=O)c1c(-c2ccc(F)cc2)oc2ccc(-c3cccc(C(=O)NC(C)(C)C(=O)O)c3)cc12	> 10 µM	0.25 to 1 µM
CN1CN(C)c2c(-c3cccc(C(=O)NC(C)(C)c4ccccc4)c3)ccc3oc(-c4ccc(F)cc4)c(c23)C1=O	> 10 µM	> 10 µM
CNC(=O)c1c(-c2ccc(F)cc2)oc2ccc(-c3cccc(S(=O)(=O)NC(C)(C)C)c3)cc12	> 10 µM	> 4 µM
CNC(=O)c1c(-c2ccc(F)cc2)oc2ccc(-c3cccc(S(=O)(=O)NC(C)C)c3)cc12	> 10 µM	> 10 µM
CNC(=O)c1c(-c2ccc(F)cc2)oc2ccc(-c3cccc(S(=O)(=O)NC4CC4)c3)cc12	> 10 µM	> 10 µM
CNC(=O)c1c(-c2ccc(F)cc2)oc2ccc(-c3cccc(S(=O)(=O)N4CCOCC4)c3)cc12	> 10 µM	> 10 µM
CNC(=O)c1c(-c2ccc(F)cc2)oc2ccc(-c3cccc(S(=O)(=O)NCc4ccccc4)c3)cc12	> 10 µM	> 10 µM
CNC(=O)c1c(-c2ccc(F)cc2)oc2ccc(-c3cccc(S(=O)(=O)NCCO)c3)cc12	> 10 µM	1 to 10 µM
CNC(=O)c1c(-c2ccc(F)cc2)oc2ccc(-c3cccc(C(=O)N4Cc5ccccc5C4)c3)cc12	> 10 µM	> 0.4 µM
